In general, IC50 refers to the concentration that gives 50% inhibition. Lower therefore signals inhibition by little substance.

The assay deals with Protein disulfide-isomerase (Homo sapiens, UniProt P07237). Briefly: Reductase Activity Assay. The note with it: pH 7. On the procedure: Reductase activity was assayed by measuring the PDI-catalyzed reduction of insulin in the presence of DTT, thus measuring the aggregation of reduced insulin chains at 650nm.
Chain of Protein disulfide-isomerase (P07237 whole entry): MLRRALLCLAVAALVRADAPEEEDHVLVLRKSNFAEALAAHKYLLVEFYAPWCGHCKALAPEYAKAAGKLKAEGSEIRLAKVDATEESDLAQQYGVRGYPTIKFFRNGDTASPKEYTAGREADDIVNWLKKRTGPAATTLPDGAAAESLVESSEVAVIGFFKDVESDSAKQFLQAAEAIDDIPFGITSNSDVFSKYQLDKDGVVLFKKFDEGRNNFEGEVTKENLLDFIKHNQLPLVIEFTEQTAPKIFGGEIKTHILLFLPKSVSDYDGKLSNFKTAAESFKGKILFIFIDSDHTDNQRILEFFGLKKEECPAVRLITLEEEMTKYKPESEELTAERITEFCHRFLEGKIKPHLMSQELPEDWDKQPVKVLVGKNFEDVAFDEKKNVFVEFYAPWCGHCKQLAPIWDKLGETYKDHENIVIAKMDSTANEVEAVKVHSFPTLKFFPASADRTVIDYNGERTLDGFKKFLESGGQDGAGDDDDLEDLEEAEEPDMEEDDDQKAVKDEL
In turn, `C/C1=C\CC(OC(=O)c2ccc(O)cc2)/C(C)=C/[C@@H](O)C(C)(C)CCC1` (stereo partly specified) [Juniferdin derivative, 1] registered an IC50 of 156 nM. This counts as sub-micromolar. In turn, `COc1ccc(C(=O)OC2C/C=C(\C)CCCC(C)(C)[C@H](O)/C=C/2C)cc1` (stereo partly specified) [Juniferdin derivative, 2] had an IC50 above 10000 nM. The result for `CC(=O)O[C@@H]1/C=C(\C)C(OC(=O)c2ccc(O)cc2)C/C=C(\C)CCCC1(C)C` (stereo partly specified) [Juniferdin derivative, 3] reads 453 nM; that for `CC(=O)Oc1ccc(C(=O)OC2C/C=C(\C)CCCC(C)(C)[C@H](O)/C=C/2C)cc1` (stereo partly specified) [Juniferdin derivative, 4], 627 nM. With `CC(=O)Oc1ccc(C(=O)OC2C/C=C(\C)CCCC(C)(C)[C@H](OC(C)=O)/C=C/2C)cc1` (stereo partly specified) [Juniferdin derivative, 5], the IC50 was found to be 693 nM. For `C/C1=C\CC(OC(=O)c2ccccc2)/C(C)=C/[C@@H](O)C(C)(C)CCC1` (stereo partly specified) [Juniferdin derivative, 6], inhibition was half-maximal at 4960 nM (IC50).

With `C/C1=C\CC(OC(=O)c2ccc(F)cc2)/C(C)=C/[C@@H](O)C(C)(C)CCC1` (stereo partly specified) [Juniferdin derivative, 7], half-maximal inhibition (IC50) was put at 958 nM. Then `CCCCCCCCOC(=O)c1ccc(O)cc1` [Juniferdin derivative, 8], with above 10000 nM.

Take `O=C(OC1CCCCCCC1)c1ccc(O)cc1` [Juniferdin derivative, 9]: half-maximal inhibition (IC50) was put at 2850 nM. Molecule `O=C(OC1CCCCCCCCCCC1)c1ccc(O)cc1` [Juniferdin derivative, 10] showed a half-maximal inhibitory concentration (IC50) of 565 nM. Against the preceding molecule, the IC50 is about 5-fold lower.

For the molecule `C/C1=C\[C@@H](O)C(C)(C)CCC[C@@]2(C)O[C@@H]2CC1OC(=O)c1ccc(O)cc1` (stereo partly specified) [Juniferdin derivative, 13], the IC50 worked out at 167 nM. Then `C/C1=C\CC(OC(=O)c2ccc(O)cc2)[C@@]2(C)O[C@@H]2[C@@H](O)C(C)(C)CCC1` (stereo partly specified) [Juniferdin derivative, 14], with 2530 nM. On to `CC1(C)CCC[C@@]2(C)O[C@@H]2CC(OC(=O)c2ccc(O)cc2)[C@@]2(C)O[C@@H]2[C@H]1O` (stereo partly specified) [Juniferdin derivative, 15], for which the IC50 is above 10000 nM. Then `C/C1=C\[C@@H](O)C(C)(C)CCC[C@@](C)(O)[C@H](O)CC1OC(=O)c1ccc(O)cc1` (stereo partly specified) [Juniferdin derivative, 16], with above 10000 nM; and `C/C1=C\[C@@H](O)C(C)(C)CCC[C@](C)(O)[C@@H](O)CC1OC(=O)c1ccc(O)cc1` (stereo partly specified) [Juniferdin derivative, 17], with 1850 nM; and `C/C1=C\CC(O)/C(C)=C/[C@@H](O)C(C)(C)CCC1` (stereo partly specified) [Juniferol, 12], with above 10000 nM.

The record behind these values is BindingDB's records for doi:10.1021/cb100387r (Riken Advanced Science Institute, 2011).
